Data set [1] is described as follows: Pour point of the additive. Format: physicochemical. Set-up: unit not given here. Particulars: neat additive.
A short description of data set [2]: Flash point of the additive. The note with it: neat additive. Format: physicochemical.
For data set [3] the following is noted: neat additive. An excerpt:
Additional characteristics of the exemplary additives and controls are shown below in Table 9. […] The Control and Control 2 are the presented formula without an additive included. […] Blend 1 is the presented formula with a blend of rosin ester tackifier and fatty acid ester used as a control additive. For Control 2 and Inventive Ex. 1-Adj, the first pass and second pass were mixed in the mixer, but the final pass was mixed on the mill. Inventive Ex. 1-Adj was split into three (3) to allow for three (3) different cure adjustments to try to increase the Ts2 (the […] time for the viscosity to increase 2 units above minimum torque (ML)), slightly reduce Tc90 (the time it takes to get to 90% of the maximum state of cure/cross-linking (MH or maximum torque)), and increase the maximum torque (MH) to more closely match the Moving Die Rheometer (MDR) curve of the control compound.

On to `CCCCCCCC/C=C\CCCCCCCC(=O)NCCNCCN` [Inventive Ex. 1, diethylenetriamine (DETA) oleic acid amidoamine], for which, in data set [1], the “Pour Point” value amounted to 36. Besides, in data set [2], the “Flash Point” value is listed as over 200 C.
For `CCCCCCCC/C=C\CCCCCCCC1=NCCN1CCN` [Inventive Ex. 2, diethylenetriamine (DETA) oleic acid imidazoline], the “Pour Point” value in data set [1] is recorded as −27. Besides, the “Flash Point” value in data set [2] is on record as over 200 C. Besides, the “Water Solubility” value in data set [3] is on record as “Partial ~2%”.
The matching figures for `CCCCCCCC/C=C\CCCCCCCC(=O)NCCNCCNC(=O)CCCCCCC/C=C\CCCCCCCC` [Inventive Ex. 3, diethylenetriamine (DETA) oleic acid bisamide]: 78, over 200 C and “none”.
On to `CCCCCCCC/C=C\CCCCCCCC(=O)NCCCN(C)C` [Inventive Ex. 6, dimethylaminopropylamine (DMAPA) oleic acid amidoamine], for which, in data set [1], the “Pour Point” value is 0. The “Flash Point” value in data set [2] is 113 C.
In the same order, the values of “tetraethylenepentamine (TEPA) oleic acid amidoamine [Inventive Ex. 5]” are −12 and over 200 C.

These data come from US20250109275A1, “AMINE FATTY ACID ADDUCTS AS TIRE COMPOUNDING ADDITIVES” (priority 2023, published 2025).
